# US8883827B2, “Azole derivatives as WTN pathway inhibitors” (Oslo University Hospital HF, priority 2009, dated 2014)
# Tests used:
# Format in all cases: cell-based
# canonical Wnt signaling [1] = test: ST-Luc (SuperTOPFlash) Luciferase assay in HEK293 cells, 30% Wnt3a-CM; settings: Homo sapiens, HEK293; 10 μM compound, 30% Wnt3a-CM, 24 h; relative to DMSO control
# Experimental: Inhibition of Wnt signaling by compound No. 1 was quantified in vitro using a Luciferase assay in HEK293 cells transiently transfected with SuperTOPFlash plasmid (ST-Luc) (Veeman M T et al., Curr. Biol. 13: 680-685, 2003) at concentrations from 0.1-10 μM. HEK293 cells were purchased from ATCC (American Type Culture Collection) and maintained according to suppliers recommendations.
# Transfection was performed using 80000 HEK293 cells seeded in 48-well plates coated with poly-L lysine. After 24 hours, 0.25 μg total plasmid DNA (0.23 μg SuperTOPFlash+0.02 μg pRL-TK (Renilla)—Promega) and 0.75 μl FuGENE6 (Roche) was combined in a total volume in 25 μl Opti-MEM® (Invitrogen) as described by the manufacturer (Roche). The transfection mixture was added to the plated cells and media were changed after 24 hours.
# The Luciferase assay was performed by incubating transfected cells for 24 hours with various concentrations of compound No. 1 in 30% Wnt3a-CM (Wnt3a containing conditioned medium from L Wnt3a cells was harvested as described by ATCC). All treated reporter cells were finally lysed and the firefly luciferase and Renilla activities were measured on a 20/20n Luminometer (Turner BioSystems) as described in the Dual-Glo™ Luciferase Assay System Technical Manual (Promega).
# HEK293 cells were transfected, grown and assayed as described in Example 22. 24 hours after seeding, the cells were incubated for an additional 24 hours with 10 μM concentrations of compounds in 30% Wnt3a-CM.
# The percent activities shown in Table 3 are calculated relative to DMSO as a control. Some values shown are averages of multiple measurements. Compound XAV939 (Novartis; Huang et al., Nature (2009), 461, pp. 614-20) which is used as a positive control, has an activity of 7%.
# canonical Wnt signaling [2] = test: IC50 in STF/REN HEK293 cells, 50% Wnt3a-CM; settings: Homo sapiens; STF/REN HEK293, 50% Wnt3a-CM, 24 h
# Experimental: IC50 values were calculated using STF/REN HEK293 cells prepared essentially according to Example 22. Briefly, HEK293 cells (80,000 cells per well) were seeded in 48-well plates coated with poly-L lysine. 24 hours after seeding, the cells were incubated for an additional 24 hours with various compound concentrations in 50% Wnt3a-CM. After compound exposure, the cells were lysed and the firefly luciferase and Renilla activities were measured on a 20/20n Luminometer (Turner BioSystems) as described in the Dual-Glo™ Luciferase Assay System Technical Manual (Promega).
# XLfit (idbs) was used to determine the IC50 and GI50 values in inhibition experiments. The data were fit to the following formulae:
# IC50: Langmuir Binding Isotherm: fit=((A+(B*x))+(((C−B)*(1−exp((−1*D)*x)))/D)) res=(y−fit)
# [3] = tested on: SW480 colon carcinoma cells; test: MTS cell proliferation assay, Table 5; settings: Homo sapiens; SW480, 10 μM, 72 h; relative to DMSO control; read-out: Cell proliferation (%) for test compounds
# Experimental: For the experiment giving the results shown in Table 5, cells (3000 per well) were seeded on 96 well plates (eight replicates per treatment). After 24 hours, and daily thereafter, cell culture medium (including 10% FBS) was mixed with 10 μM compounds or with 0.1% DMSO vehicle and then added to the wells. Sixteen wells of seeded control cells, defining incubation time zero (t0=24 hour after cell seeding), were incubated with 20 μl substrate in 100 μl phenol free D-MEM (Invitrogen) for 2 hours, as described in the CellTiter 96® AQueous Non-Radioactive Cell Proliferation Assay protocol (Promega). The A490 was recorded. The treatment samples were likewise measured after 72 hours.
# The quantity of reduced MTS product (as measured by the absorbance at 490 nm) is directly proportional to the number of living cells in the culture and thus allows a direct comparison of cell proliferation in each case. DMSO was used as a control. The following formula was used to determine single well relative A490 sample values: ((Sample A490−Average A490t0)*100)/(Average A490t720.1% DMSO control−Average A490t0)
# The proliferation of SW480 cells (in percent) is the A492 value relative to that of the DMSO control.
SMILES,activity at 10 µM (canonical Wnt signaling [1]),IC50 (canonical Wnt signaling [2]),activity at 10 µM [3]
Cc1ccccc1-n1c(SCc2nc(-c3ccccc3Cl)no2)nnc1-c1ccncc1 [Compound 56],55.1%,,
CCOc1ccc(-n2c(SCc3nc(-c4cccc(Cl)c4)no3)nnc2-c2ccncc2)cc1 [Compound 25],59%,10 µM,
"CCOc1ccc(-c2nnc(SCc3nnc(-c4ccc(C)cc4)o3)n2-c2ccccc2Cl)cc1 [compound 109, 3-((5-p-tolyl-1,3,4-oxadiazol-2-yl)methylthio)-4-(2-chlorophenyl)-5-(4-ethoxyphenyl)-4H-1,2,4-triazole]",0.6%,,33%
Cc1ccc(-c2nnc(S[C@H](C)c3nnc(-c4ccncc4)n3-c3ccccc3Cl)o2)cc1 [100b],5%,,66%
Cc1ccc(-c2nnc(CSc3nnc(-c4ccncc4)n3-c3ccccc3Cl)o2)s1 [compound 74],13%,0.371 µM,
Cc1ccc(-n2c(SCc3nc(C(C)(C)C)no3)nnc2-c2ccncc2)cc1 [Compound 81],89%,,
COc1ccc(-n2c(SC)nnc2-c2ccncc2)cc1 [Compound 14],63.5%,,
Cc1ccc(-c2nnc(CSc3nnc(-c4ccncc4)n3-c3ccccc3Cl)o2)cc1Br [compound 73],29%,,
COc1ccc(-n2c(OCc3nc(-c4ccc(C)cc4)no3)nnc2-c2ccncc2)cc1 [Compound 4],98.4%,,
"Cc1ccc(-c2nnc(CSc3nnc(-c4cnc(N)nc4)n3-c3ccccc3Cl)o2)cc1 [compound 132, 5-(5-((5-p-tolyl-1,3,4-oxadiazol-2-yl)methylthio)-4-(2-chlorophenyl)-4H-1,2,4-triazol-3-yl)pyrimidin-2-amine]",32%,,
Cc1ccc(-c2noc(CSc3nnc(-c4cccnc4)n3-c3ccccc3C)n2)cc1 [Compound 77],51%,,
COc1ccc(-n2c(SCCNC(C)=O)nnc2-c2ccncc2)cc1 [Compound 33],79.6%,,
COc1ccc(-n2c(SCc3cn4ccccc4n3)nnc2-c2ccncc2)cc1 [Compound 27],80.3%,,
Cc1ccc(NC(=O)CSc2nnc(-c3ccncc3)n2-c2ccc(C)cc2)cc1 [Compound 92],84%,,
Cc1cc2nc(CSc3nnc(-c4ccncc4)n3-c3ccccc3Cl)cc(=O)n2cc1C [compound 103],20%,,67%
Cc1ccccc1-n1c(SCC(=O)Nc2ncccn2)nnc1-c1ccncc1 [Compound 82],83%,,
CC(Sc1nnc(-c2ccccc2)n1-c1ccc(F)cc1F)c1nc(-c2ccncc2)no1 (centres unmarked) [Compound 80],32%,,
Cc1ccccc1-n1c(SCc2nc(-c3cccc(O)c3)no2)nnc1-c1ccncc1 [Compound 47],8.7%,0.95 µM,
"Cc1ccc(-c2nnc(CSc3nnc(-c4ccc(F)cc4)n3-c3ccccc3Cl)o2)cc1 [compound 115, 3-((5-p-tolyl-1,3,4-oxadiazol-2-yl)methylthio)-4-(2-chlorophenyl)-5-(4-fluorophenyl)-4H-1,2,4-triazole]",5%,,60%
Cc1ccc(-c2noc(CS(=O)(=O)c3nnc(-c4ccncc4)n3-c3ccccc3Cl)n2)cc1 [compound 66],25.6%,1.75 µM,
O=C(CSc1nnc(-c2ccncc2)n1-c1ccccc1)Nc1ccccn1 [Compound 97],80%,,
COc1ccc(-n2c(SCc3nc(-c4cccs4)no3)nnc2-c2ccncc2)cc1 [Compound 13],34.5%,7.1 µM,
Cc1ccc(-c2noc(CSc3nnc(-c4cccc(O)c4)n3-c3ccccc3C)n2)cc1 [Compound 45],78.1%,,
CC1CCCCC1n1c(SCc2nnc(-c3ccccc3)o2)nnc1-c1cccnc1 (centres unmarked) [Compound 87],52%,,

SMILES,activity at 10 µM (canonical Wnt signaling [1]),IC50 (canonical Wnt signaling [2]),activity at 10 µM [3]
Cc1ccc(-c2nnc(Sc3nnc(-c4ccncc4)n3-c3ccccc3Cl)s2)cc1 [Compound 63],99%,,
Cc1ccc(-c2nnc(CCc3nnc(-c4ccncc4)n3-c3ccccc3Cl)o2)cc1 [compound 101],23%,,47%
Cc1ccccc1-n1c(SCc2nc(-c3cccc(C(F)(F)F)c3)no2)ccc1-c1ccncc1 [Compound 57],51.8%,,
Cc1ccccc1-n1c(SCC(=O)Nc2ccc3c(c2)CCC3)nnc1-c1ccncc1 [Compound 89],94%,,
"Cc1ccc(-c2nnc(CSc3nnc(-c4cc(O)cc(O)c4)n3-c3ccccc3Cl)o2)cc1 [compound 106, (5-((5-p-tolyl-1,3,4-oxadiazol-2-yl)methylthio)-4-(2-chlorophenyl)-4H-1,2,4-triazol-3-yl)benzene-1,3-diol]",14.5%,,63%
COc1ccc(-n2c(SCCc3nc(-c4ccc(C)cc4)no3)nnc2-c2ccncc2)cc1 [Compound 2],31.8%,,
Fc1ccc(-n2c(SCc3nc(-c4cccc(Cl)c4)no3)nnc2-c2ccncc2)cc1 [Compound 21],90.1%,10 µM,
N#Cc1ccc(-c2nnc(CSc3nnc(-c4ccncc4)n3-c3ccccc3Cl)o2)cc1 [Compound 69],26%,,
COc1cc(OC)cc(-c2nnc(SCc3nnc(-c4ccc(C)cc4)o3)n2-c2ccccc2Cl)c1 [Compound 107],4.5%,,47%
Cc1ccc(-n2c(SC(C)c3nc(-c4ccncc4)no3)nnc2-c2ccncc2)cc1C (centres unmarked) [Compound 79],16%,,70%
CCOc1ccc(-n2c(SCc3nnc(C)o3)nnc2-c2ccncc2)cc1 [Compound 30],78%,,
Sc1nnc(-c2ccncc2)n1-c1ccc(Cl)cc1 [Compound 17],76.8%,,
NCCCOCCCOc1cccc(-c2noc(CSc3nnc(-c4ccncc4)n3-c3ccccc3Cl)n2)c1 [compound 67],12.7%,< 0.1 µM,
Cc1ccc(-c2nc(CSc3nnc(-c4ccncc4)n3-c3ccccc3Cl)sc2C)cc1 [Compound 62],58%,,
COc1ccc(-n2c(O)nnc2-c2ccncc2)cc1 [Compound 16],71.8%,,
Cc1ccc(-n2c(SCC(=O)NC3CCCC3)nnc2-c2ccncc2)cc1 [Compound 93],91%,,
Cc1ccc(-c2noc(CSc3nnc(-c4ccncc4)n3-c3ccc(Cl)cc3)n2)cc1 [Compound 3],32.5%,,
Cc1ccccc1-c1nnc(CSc2nnc(-c3ccncc3)n2-c2ccccc2Cl)o1 [compound 71],31%,,
"Cc1ccc(-c2nnc(CSc3nnc(-c4ccc(Cl)c(Cl)c4)n3-c3ccccc3Cl)o2)cc1 [compound 131, 3-((5-p-tolyl-1,3,4-oxadiazol-2-yl)methylthio)-4-(2-chlorophenyl)-5-(3,4-dichlorophenyl)-4H-1,2,4-triazole]",4%,,53%
COc1ccc(-n2c(CCN(C)C)nnc2-c2ccncc2)cc1 [Compound 6],55.7%,,
COc1ccc(-n2c(S)nnc2-c2ccncc2)cc1 [Compound 15],69.1%,,
Cc1ccccc1-n1c(SCC(=O)NCc2cccs2)nnc1-c1ccncc1 [Compound 88],99%,,
Fc1ccc(-n2c(SCc3nc(-c4ccc(Cl)cc4)no3)nnc2-c2ccncc2)cc1 [Compound 12],38.8%,10 µM,
Cc1ccc2nc(CSc3nnc(-c4ccncc4)n3-c3ccccc3C)cc(=O)n2c1 [Compound 85],43%,,
